{"source": "patent US11555202B2", "about": "“Elite event EE-GM5 and methods and kits for identifying such event in biological samples” (priority 2016, dated 2023)", "test_system": "soybean plants containing event EE-GM5", "assay": "HPPD inhibitor herbicide tolerance field trials on plants with EE-GM5 (maximum phytotoxicity)", "assay_type": "in vivo, soybean (Glycine max)", "conditions": "for tolerance of plants with EE-GM5 to the herbicide: field, different locations over 2 years, applied pre-emergence or post-emergence", "experimental": "Tolerance of plants comprising EE-GM5 to HPPD inhibitor herbicides was tested at different locations in the field over 2 years. […] All post-emergence treatments were at the V2-V3 stage, with adjuvants crop oil concentrate and ammonium sulfate added to increase herbicide activity.\nThe “maximum phytotoxicity” as used herein is the highest phytotoxicity rating recorded at any observation during the duration of a trial (with 3 to 4 observations per trial). In existing weed control applications, a normal (1×) dose for isoxaflutole (IFT) in pre- or post-emergence application and for MST in post-emergence application is 105 gr/ha, and a normal (1×) dose for mesotrione in pre-emergence application is 210 gr/ha.\nAlso, in several field trials across 2 years, soybean plants with event EE-GM5 had good tolerance towards experimental HPPD inhibitor compound 2-methyl-N-(5-methyl-1,3,4-oxadiazol-2-yl)-3-(methylsulfonyl)-4-(trifluoromethyl)benzamide (U.S. Pat. No. 9,101,141) when applied pre-emergence at 400 gr ai/ha or post-emergence at 200 gr ai/ha, respectively (the average maximum phytotoxicity value for each treatment was below 20%). […] All post-emergence treatments were at the V2-V3 stage, with adjuvants crop oil concentrate and ammonium sulfate added to increase herbicide activity.\nAlso, plants with EE-GM5 when treated post-emergent (V2-V3) with topramezone at 36 g ai/ha (+COC and AMS) in 2 field trials in the US gave an average maximum phytotoxicity of 11%, showing EE-GM5 also confers good tolerance to this HPPD inhibitor."}
{"smiles": "CS(=O)(=O)c1cc(C(F)(F)F)ccc1C(=O)c1cnoc1C1CC1", "note": "[isoxaflutole, (5-cyclopropyl-4-isoxazolyl)[2-(methylsulfonyl)-4-(trifluoromethyl)phenyl]methanone]", "values": [{"measurement": "average maximum phytotoxicity", "setting": "3rd year, EE-GM5 in Thorne background, post-emergence V2-V3 stage at 210 g/ha, 4 locations", "result": 10.9, "unit": "%"}, {"measurement": "maximum phytotoxicity", "setting": "3rd year, EE-GM5 in Thorne background, pre-emergence at 410 g/ha, one field trial location", "result": 9, "unit": "%"}, {"measurement": "tolerance of plants with EE-GM5 to the herbicide", "result": "commercially relevant tolerance"}]}
{"smiles": "CSc1c(C(F)(F)F)ccc(C(=O)Nc2nnnn2C)c1Cl", "note": "[2-chloro-3-(methylsulfanyl)-N-(1-methyl-1H-tetrazol-5-yl)-4-(trifluoromethyl)benzamide]", "values": [{"measurement": "average maximum phytotoxicity", "setting": "3rd year, EE-GM5 in Thorne background, 150 g/ha post-emergence, 3 field trial locations", "result": 13.3, "unit": "%"}, {"measurement": "average maximum phytotoxicity", "setting": "several field trials across 2 years, post-emergence (V2-V3) at 100-150 gr ai/ha", "result": 20, "unit": "%"}]}
{"smiles": "Cc1nnc(NC(=O)c2ccc(C(F)(F)F)c(S(C)(=O)=O)c2C)o1", "note": "[2-methyl-N-(5-methyl-1,3,4-oxadiazol-2-yl)-3-(methylsulfonyl)-4-(trifluoromethyl)benzamide]", "values": [{"measurement": "average maximum phytotoxicity value", "setting": "several field trials across 2 years, post-emergence (V2-V3) at 200 gr ai/ha", "result": "below 20%"}, {"measurement": "average maximum phytotoxicity value", "setting": "several field trials across 2 years, pre-emergence at 400 gr ai/ha", "result": "below 20%"}]}
{"smiles": "CS(=O)(=O)c1ccc(C(=O)C2C(=O)CCCC2=O)c([N+](=O)[O-])c1", "note": "[mesotrione, 2-[4-(Methylsulfonyl)-2-nitrobenzoyl]cyclohexane-1,3-dione]", "values": [{"measurement": "tolerance of plants with EE-GM5 to the herbicide", "result": "commercially relevant tolerance"}]}
{"smiles": "Cc1c(C(=O)c2cnn(C)c2O)ccc(S(C)(=O)=O)c1C1=NOCC1", "note": "[topramezone, [3-(4,5-dihydro-3-isoxazolyl)-2-methyl-4-(methylsulfonyl)phenyl](5-hydroxy-1-methyl-1H-pyrazol-4-yl)methanone]", "values": [{"measurement": "average maximum phytotoxicity", "setting": "post-emergent (V2-V3) at 36 g ai/ha (+COC and AMS), 2 field trials in the US", "result": 11, "unit": "%"}]}
